Measured values published in US20230391739A1, “ARYL DERIVATIVES FOR TREATING TRPM3 MEDIATED DISORDERS” (Katholieke Universiteit Leuven, priority 2020, published 2023).

Target: T1, mouse TRPM3α2 (mTRPM3) ion channel (Mus musculus, UniProt J9SQF3)
T1 construct: expressed in transfected cells; host or cells: flip-in HEK293
Experiment: TRPM3 ion channel driven Ca2+ uptake, Fluo-4 AM assay, PS-stimulated (mTRPM3)
Format: cell-based
Settings: TRPM3 overexpressing flip-in HEK293 cells stimulated with Pregnenolone sulfate (PS) 50 μM, activity ranges A, B, C
Outline: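 Flp-In HEK293 cells overexpressing mTRPM3α2 were added, in Ca²⁺-free Krebs, to wells already holding compound and 50 μM pregnenolone sulfate in Ca²⁺-containing Krebs. Fluo-4 AM fluorescence (ex 485/em 535 nm) was read immediately. Percent inhibition was computed from RFU relative to PS/vehicle wells and a positive-control inhibitor.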

T1 sequence (J9SQF3 1-1709 isoform J9SQF3-12): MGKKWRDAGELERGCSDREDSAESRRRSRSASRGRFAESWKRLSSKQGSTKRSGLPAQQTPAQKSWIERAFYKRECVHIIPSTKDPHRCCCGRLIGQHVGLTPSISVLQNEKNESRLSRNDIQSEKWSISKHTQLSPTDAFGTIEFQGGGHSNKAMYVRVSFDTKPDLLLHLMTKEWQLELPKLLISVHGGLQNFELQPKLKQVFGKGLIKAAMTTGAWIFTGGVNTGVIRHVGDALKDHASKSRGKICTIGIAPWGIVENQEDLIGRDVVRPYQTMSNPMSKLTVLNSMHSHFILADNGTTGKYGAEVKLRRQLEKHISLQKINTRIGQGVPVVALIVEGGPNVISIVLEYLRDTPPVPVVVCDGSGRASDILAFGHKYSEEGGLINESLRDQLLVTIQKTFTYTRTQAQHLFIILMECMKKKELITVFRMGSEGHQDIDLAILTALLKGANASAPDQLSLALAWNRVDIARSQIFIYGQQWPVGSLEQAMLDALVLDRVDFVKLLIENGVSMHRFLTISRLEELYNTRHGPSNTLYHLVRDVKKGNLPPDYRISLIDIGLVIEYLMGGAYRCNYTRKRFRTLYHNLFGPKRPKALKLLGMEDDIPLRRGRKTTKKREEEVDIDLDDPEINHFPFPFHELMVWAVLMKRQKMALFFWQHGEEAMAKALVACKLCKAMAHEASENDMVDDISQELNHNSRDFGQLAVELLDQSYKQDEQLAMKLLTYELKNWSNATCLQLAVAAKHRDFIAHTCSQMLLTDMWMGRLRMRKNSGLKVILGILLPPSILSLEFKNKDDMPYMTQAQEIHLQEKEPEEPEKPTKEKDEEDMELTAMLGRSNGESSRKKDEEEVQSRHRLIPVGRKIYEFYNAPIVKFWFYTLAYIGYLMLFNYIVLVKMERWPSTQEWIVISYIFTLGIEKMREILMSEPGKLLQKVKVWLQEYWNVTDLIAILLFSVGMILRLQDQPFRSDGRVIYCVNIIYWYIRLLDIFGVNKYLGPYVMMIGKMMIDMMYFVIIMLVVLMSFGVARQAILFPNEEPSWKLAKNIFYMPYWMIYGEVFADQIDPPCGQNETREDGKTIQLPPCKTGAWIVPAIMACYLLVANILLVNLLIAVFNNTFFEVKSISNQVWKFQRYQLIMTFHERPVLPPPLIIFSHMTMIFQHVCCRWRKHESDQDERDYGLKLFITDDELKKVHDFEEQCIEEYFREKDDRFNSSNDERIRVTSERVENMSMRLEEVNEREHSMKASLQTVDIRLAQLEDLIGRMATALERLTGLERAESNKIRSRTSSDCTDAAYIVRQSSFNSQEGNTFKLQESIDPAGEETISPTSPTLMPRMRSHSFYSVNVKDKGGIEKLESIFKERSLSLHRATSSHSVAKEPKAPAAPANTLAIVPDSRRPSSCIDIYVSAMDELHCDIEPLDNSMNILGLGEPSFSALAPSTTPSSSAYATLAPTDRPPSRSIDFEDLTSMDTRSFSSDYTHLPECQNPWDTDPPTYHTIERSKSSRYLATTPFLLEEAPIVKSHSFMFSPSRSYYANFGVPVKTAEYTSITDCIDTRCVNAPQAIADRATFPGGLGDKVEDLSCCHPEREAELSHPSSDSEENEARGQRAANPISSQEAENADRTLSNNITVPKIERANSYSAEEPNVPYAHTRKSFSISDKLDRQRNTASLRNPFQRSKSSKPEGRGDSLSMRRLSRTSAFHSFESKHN

IC50	Compound
1 to 20 µM	COCCCN1CCC(NC(=O)c2c(C)oc3ccc(OCc4ccccc4)cc23)CC1 [Cpd 229, 5-(benzyloxy)-N-(1-(3-methoxypropyl)piperidin-4-yl)-2-methylbenzofuran-3-carboxamide]
< 1 µM	COC(=O)C1(NC(=O)c2c(C)oc3ccc(OCc4ccccc4)cc23)CCOCC1 [Cpd 212, methyl 4-(5-(benzyloxy)-2-methylbenzofuran-3-carboxamido)tetrahydro-2H-pyran-4-carboxylate]
1 to 20 µM	Cc1oc2ccc(OCc3ccccc3)cc2c1C(=O)N[C@H]1C[C@H]2C(=O)N(C)CC(=O)N2C1 [Cpd 235, 5-(benzyloxy)-2-methyl-N-((7S,8aS)-2-methyl-1,4-dioxooctahydropyrrolo[1,2-a]pyrazin-7-yl)benzofuran-3-carboxamide]
1 to 20 µM	Cc1oc2ccc(OCc3ccccc3)cc2c1C(=O)NC1CC(=O)N(C)C1 (stereo not shown) [Cpd 110, 5-(benzyloxy)-2-methyl-N-(1-methyl-5-oxopyrrolidin-3-yl)benzofuran-3-carboxamide]
